What all share (assay type): in vivo
One data set is described as follows: Acute toxicity on mice. The following applies: mouse, in vivo, po, 7 days observation. Here is the method:
(§1) The test is carried out on male and female white mice belonging to the CFLP strain and weighing 18-22 g. The test compound is administered orally and the animals are observed for a period of 7 days. In the groups for each dose half of the animals are male and the other half are female. The animals are kept in a plastic box (39×12×12 cm) on scrapings litter at room temperature. The mice receive standard fodder and tap water ad libitum. The toxicity data are determined by the method of Litchfield-Wilcoxon.
(§2) The test compound is administered in an aqueous solution.

Data set [1] has as its system tetrabenazine ptosis. Put plainly: Antagonism of tetrabenazine ptosis on mice, p.o. Conditions: for ED50: tetrabenazine 50 mg/kg i.p.
In data set [2] the test system is tetrabenazine ptosis. Nature of the data set: Antagonism of tetrabenazine ptosis on rats, p.o. The protocol:
(3) ANTAGONISM OF TETRABENAZINE PTOSIS, ON MICE AND RATS, P.O. […] The results are evaluated as follows: on the basis of all the measured data an average ptosis is calculated for each group and the deviation from the average of the control group is expressed in percent (inhibition). The ED50 values are calculated from the data thus obtained.

For the next data set, the system named is reserpine ptosis. Nature of the data set: Antagonism of reserpine ptosis on rats, p.o. The following applies: for ED50: reserpine 2.5 mg./kg. s.c. Here is the method:
The animals showing ptosis are counted until the effect decreases. The evaluation is carried out as described in connection with the previous ptosis test (test 3).

Another data set in a line: Acute toxicity on rats. Conditions: rat, in vivo, po, 14 days observation.
The test system of data set [3] is aconitine-induced ECG changes. Nature of the data set: animal or person. The following applies: rats. Here is the method:
The test is carried out according to the modified method of Marmo et al. The test animals are narcotized with ethyl urethane (1.2 g./kg. i.p.). Aconitine is administered intravenously in the form of a bolus injection in a dose of 75 μg./kg. The changes of ECG are followed in standard II outlet 5 minutes after the administration of aconitine. The changes observed are evaluated with the aid of a scale from 0 to 5 points. The test compound is administered either intravenously 2 minutes before the addition of aconitine, or orally 1 hour before the aconitine administration.

The next data set relates to carrageenin oedema. Put plainly: Antiinflammatory effect on rats (carrageenin paw oedema). Conditions: for ED50: Rattus norvegicus, read-out: Oedema inhibitory effect ED50. The protocol: Into the planar surface of the hind leg of rats weighing 150-180 g. 0.1 ml. of 1% carrageenin is injected. The volume of the paw is determined before and 3 hours after the administration of the irritating agent with a plethysmometer. The animals are pre-treated with the test compound and the carrier (control), respectively, for an hour. Because of the different solubility properties Tween 80 as auxiliary agent is used.
Background: In the carrageenan paw model, swelling and tenderness develop within hours.

A further data set relates to mice. Nature of the data set: Acute toxicity on mice. The following applies: p.o., 7 days observation, 10080 min. Here is the method: as §1, §2
A further data set concerns rats. Nature of the data set: Acute toxicity on rats. Conditions: p.o., 14 days observation, 20160 min.
A further data set relates to tremorine-induced tremor. Put plainly: Antitremorine effect on mice. The protocol:
20 mg./kg. of tremorine are administered i.p. to mice whereupon after 45 minutes the induced characteristic tremor is registered. The test compounds are administered orally 1 hour before the addition of tremorine.

[4] abbreviates: Mus musculus, po, read-out: ED50.
The mark [5] stands for this setting: Rattus norvegicus, po, read-out: ED50.
[6] abbreviates: Rattus norvegicus, iv, i.v. 2 minutes before aconitine 75 μg./kg. i.v.
Where [7] appears, read: Rattus norvegicus, po, p.o. 1 hour before aconitine 75 μg./kg. i.v.
The mark [8] stands for this setting: 0.1 ml. of 1% carrageenin, 3 hours, pre-treated for an hour.

Like-named read-outs stand apart in the source and are kept apart here.

The term LD50 denotes the dose expected to kill half of the subjects tested. Read a low LD50 as a more toxic substance. In general, ED50 refers to the dose at which the effect has come halfway, by size or by number of responders. In turn, `CN(C)CCC=C1c2ccccc2CCc2ccccc21` [Amitriptyline, N,N-dimethyl-3-[dibenzo[a,d]-cycloheptadiene-5-ylidene]-propylamine, reference compound] returned an LD50 at 168 h in the data set “Acute toxicity on mice” of 225 mg/kg. Further, the ED50 with tetrabenazine ptosis [1] (setting [4]) was 12 mg/kg; in the data set on reserpine ptosis (setting [5]), ~140 mg/kg. Moreover, the Ther. index is 46 in the data set on tetrabenazine ptosis [2] and 3.6 in the data set on reserpine ptosis.

As for `OC1(c2ccc(Cl)cc2)NC=N[n+]2ccc3ccccc3c21` (centres unmarked) [Compound A, 1-(4-chloro-phenyl)-1-hydroxy-1,2-dihydro-as-triazino[6,1-a]isoquinolinium-ethanesulfonate], in the data set “Acute toxicity on mice”, the LD50 at 168 h worked out at 410 mg/kg. For the same compound, the median lethal dose (LD50) at 336 h in “Acute toxicity on rats” is 1300 mg/kg. Also, the Ther. index with tetrabenazine ptosis [1] is reported as 1367; in the data set with tetrabenazine ptosis [2], 4333; in the data set on reserpine ptosis, 92.8; in data set [3], 32.5; in the data set with carrageenin oedema it was 53.1. Besides, the ED50 in the data set on tetrabenazine ptosis [1] was 0.3 mg/kg; with tetrabenazine ptosis [2] it was 0.3 mg/kg; in the data set on reserpine ptosis (setting [5]), 14 mg/kg; in [3] (setting [6]) it was 0.9 mg/kg; in [3] (setting [7]) it was 40 mg/kg; in the data set with carrageenin oedema (setting [8]), 24.5 mg/kg.

Turning to `OC1(c2ccc(Cl)cc2)NC=N[n+]2ccc3ccccc3c21` (centres unmarked) [Compound B, 1-(4-chloro-phenyl)-1-hydroxy-1,2-dihydro-as-triazino[6,1-a]isoquinolinium-chloride], the LD50 is 560 mg/kg with mice and “about 1100 mg/kg” in the data set on rats. The Ther. index in the data set on tetrabenazine ptosis [1] came out at 1867; in the data set on tetrabenazine ptosis [2], 1100; with reserpine ptosis, 39.3; in [3] it was 27.5; with tremorine-induced tremor, 93.3. The median effective dose (ED50) in the data set on tetrabenazine ptosis [1] was 0.3 mg/kg; in the data set on tetrabenazine ptosis [2], 1.0 mg/kg; in the data set with reserpine ptosis it was 28 mg/kg; in data set [3] (i.v. 2 minutes before aconitine 75 μg./kg. i.v.), 1.6 mg/kg; in data set [3] (p.o. 1 hour before aconitine 75 μg./kg. i.v.) it was 30 mg/kg; with tremorine-induced tremor (Mus musculus, po, p.o. 1 hour before tremorine 20 mg./kg. i.p.) it was 6 mg/kg.

With `OC1(c2ccc(Cl)cc2)NC=N[n+]2ccc3ccccc3c21` (centres unmarked) [Compound C, 1-(4-chloro-phenyl)-1-hydroxy-1,2-dihydro-as-triazino[6,1-a]isoquinolinium-bromide], the LD50 in the data set on mice was 590 mg/kg; in the data set with rats, “about 1030 mg/kg”. Moreover, the Ther. index with tetrabenazine ptosis [1] came out at 203; with tetrabenazine ptosis [2], 191; in the data set on reserpine ptosis it was 49.0. For the same compound, the values for the ED50 in the data set on tetrabenazine ptosis [1], in the data set on tetrabenazine ptosis [2] and in the data set with reserpine ptosis were 2.9 mg/kg, 5.4 mg/kg and 21 mg/kg, respectively.

As to `CCN(CC)CC(=O)Nc1c(C)cccc1C` [Lidocain, α-diethylamino-2,6-dimethyl-acetanilide, reference compound], the median effective dose (ED50) in data set [3] (setting [6]) was determined as 4 mg/kg; in [3] (setting [7]) it was 120 mg/kg. The “Antiarrhythmial effect (in words)” value in data set [3] (i.v. and p.o.) is “inactive”. For the same compound, the “Antiarrhythmial effect (percent in parentheses)” value in data set [3] (p.o., at 120 mg./kg.) amounted to 3.5%.

In turn, `CCCCC1C(=O)N(c2ccccc2)N(c2ccccc2)C1=O` [Phenylbutazon, 4-butyl-1,2-diphenyl-3,5-pyrazolidine-dione] yielded a Ther. index in the data set with carrageenin oedema of 5.3. The ED50 in the data set with carrageenin oedema (setting [8]) is ~90 mg/kg.

The compound `Clc1ccc(-c2ncn[n+]3ccc4ccccc4c23)cc1` [Reference compound D, 1-(4-chloro-phenyl)-as-triazino[6,1-a]isochinolinium-bromide, reference compound] displayed an LD50 at 168 h in the data set “Acute toxicity on mice” of 600 mg/kg. Also, the ED50 with tetrabenazine ptosis [1] (setting [4]) was 3.2 mg/kg; in the data set with tetrabenazine ptosis [2] (setting [5]) it was 5.6 mg/kg; with reserpine ptosis (setting [5]) it was ~60 mg/kg. The Ther. index with tetrabenazine ptosis [2] is 179; in the data set with reserpine ptosis it was 16.7. For the same compound, in the data set on carrageenin oedema (setting [8]), the “Oedema inhibitory effect ED50” value is given as “no effect”. In addition, the “Antitremorine effect ED50” value with tremorine-induced tremor (p.o. 1 hour before tremorine 20 mg./kg. i.p.) was “inactive”.

(Values after patent US4602018A, “Condensed as-triazine derivatives” (Egyt Gyogyszevegyeszeti Gyar, priority 1983, dated 1986).)
